Where “and” joins values, the source holds several entries; their conditions need not be identical. Identical values can stand only once.
T1: Anc80 MalDH (synthetic construct, UniProt Z9KM54M7L8)
T1 construct: tetramer
T1 sequence (Z9KM54M7L8 1-304): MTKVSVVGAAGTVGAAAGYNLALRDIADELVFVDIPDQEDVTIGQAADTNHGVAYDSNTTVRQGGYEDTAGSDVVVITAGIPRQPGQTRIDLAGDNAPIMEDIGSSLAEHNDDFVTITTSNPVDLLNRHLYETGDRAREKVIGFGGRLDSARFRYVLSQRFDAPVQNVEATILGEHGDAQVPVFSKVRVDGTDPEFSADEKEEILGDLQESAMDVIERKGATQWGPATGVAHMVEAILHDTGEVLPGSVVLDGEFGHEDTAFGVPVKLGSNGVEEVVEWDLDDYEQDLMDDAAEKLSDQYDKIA

T2: N. maga MalDH (Natrialba magadii, UniProt D3SVD7)
T2 construct: gene mdh; tetrameric MalDH family
T2 sequence (D3SVD7 1-304): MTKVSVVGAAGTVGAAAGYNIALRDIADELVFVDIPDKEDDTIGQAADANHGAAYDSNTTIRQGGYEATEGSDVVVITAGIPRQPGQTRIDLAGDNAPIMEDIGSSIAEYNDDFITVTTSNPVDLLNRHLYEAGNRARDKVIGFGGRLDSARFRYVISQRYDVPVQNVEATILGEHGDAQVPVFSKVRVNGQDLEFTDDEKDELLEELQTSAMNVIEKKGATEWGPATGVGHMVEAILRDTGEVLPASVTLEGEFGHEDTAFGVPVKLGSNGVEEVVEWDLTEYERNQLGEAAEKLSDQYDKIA

T3: Anc88 MalDH (synthetic construct, UniProt Z9B5L9LSO7)
T3 sequence (Z9B5L9LSO7 1-304): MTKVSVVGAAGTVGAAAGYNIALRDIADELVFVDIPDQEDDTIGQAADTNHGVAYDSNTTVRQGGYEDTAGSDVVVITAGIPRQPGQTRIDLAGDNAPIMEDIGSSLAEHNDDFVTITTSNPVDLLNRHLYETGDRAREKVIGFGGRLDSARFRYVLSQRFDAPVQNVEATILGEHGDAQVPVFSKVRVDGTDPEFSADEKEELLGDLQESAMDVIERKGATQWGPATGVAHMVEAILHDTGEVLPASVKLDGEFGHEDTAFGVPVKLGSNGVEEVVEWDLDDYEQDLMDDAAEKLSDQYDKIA

T4: H. mari MalDH (Haloarcula marismortui, UniProt Q07841)
T4 construct: gene mdh; tetramer about 130 kDa
T4 sequence (Q07841 1-304): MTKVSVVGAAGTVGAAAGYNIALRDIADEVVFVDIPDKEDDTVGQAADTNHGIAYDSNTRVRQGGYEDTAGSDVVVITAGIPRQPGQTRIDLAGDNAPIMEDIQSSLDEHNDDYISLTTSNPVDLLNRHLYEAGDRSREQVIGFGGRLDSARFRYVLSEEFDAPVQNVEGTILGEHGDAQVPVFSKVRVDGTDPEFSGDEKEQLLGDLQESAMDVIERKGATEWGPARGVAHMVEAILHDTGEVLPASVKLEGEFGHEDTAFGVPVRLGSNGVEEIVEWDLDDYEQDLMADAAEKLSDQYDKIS


Tests used:
[1] = target: T1, Anc80 MalDH; test: NADH oxidation at […] nm, OAA concentration profile; format: biochemical; conditions: 3.8 M KCl, 50 mM Tris-HCl pH 7, 25 C, 0.2 mM NADH; inhibited by excess substrate
[2] = target: T2, N. maga MalDH; test: NADH oxidation at […] nm, OAA concentration profile; format: biochemical; conditions: 3.8 M KCl, 50 mM Tris-HCl pH 7, 25 C, 0.2 mM NADH; no inhibition by excess substrate
[3] = target: T3, Anc88 MalDH; test: NADH oxidation at […] nm, OAA concentration profile; format: biochemical; conditions: 3.8 M KCl, 50 mM Tris-HCl pH 7, 25 C, 0.2 mM NADH; no inhibition by excess substrate
[4] = test system: Anc78 MalDH (LCAHa) (synthetic construct); test: NADH oxidation at […] nm, OAA concentration profile; format: biochemical; conditions: 3.8 M KCl, 50 mM Tris-HCl pH 7, 25 C, 0.2 mM NADH; inhibited by excess substrate
[5] = target: T4, H. mari MalDH; test: NADH oxidation at […] nm, OAA concentration profile; format: biochemical; conditions: 3.8 M KCl, 50 mM Tris-HCl pH 7, 25 C, 0.2 mM NADH; no inhibition by excess substrate
[6] = target: the molecule itself; test: AUC; sedimentation velocity, 20 °C, 0.1 mg/ml, 50 mM Tris pH 7.0, 1.0 M KCl
[7] = target: the molecule itself; test: AUC; sedimentation velocity, 20 °C, 0.1 mg/ml, 50 mM Tris pH 7.0, 0.1 M KCl + 0.05 M MgCl2
[8] = target: the molecule itself; test: AUC; sedimentation velocity, 20 °C, 0.1 mg/ml, 50 mM Tris pH 7.0, 0.2 M KF, after 24 h incubation

Row | Molecule | NADH oxidation at 340 nm, OAA concentration profile [1] | NADH oxidation at 340 nm, OAA concentration profile [2] | NADH oxidation at 340 nm, OAA concentration profile [3] | NADH oxidation at 340 nm, OAA concentration profile [4] | NADH oxidation at 340 nm, OAA concentration profile [5] | stoichiometry N [6] | stoichiometry N [7] | stoichiometry N [8]
1 | O=C(O)CC(=O)C(=O)O [oxaloacetate] | Anc78 and Anc80 MalDHs show a typical phenomenon of inhibition by an excess of substrate | the inhibition by high concentration of OAA is abolished (fig. 7C) | (Anc88), the inhibition by high concentration of OAA is abolished (fig. 7C) | Anc78 and Anc80 MalDHs show a typical phenomenon of inhibition by an excess of substrate | H. mari MalDH is not sensitive to inhibition by high concentration of OAA |  |  | 
2 | Haloferax volcanii malate dehydrogenase (enzyme, UniProt Q9P9L2 1-304, looked up, malate dehydrogenase (MalDH) of Haloferax volcanii; S6-S8; Tetramer in molar KCl; the oligomeric state depends on salt type and concentration (monomer in 0.2 M KCl); also called H. volc MalDH; MalDH of H. volcanii) MTKVSVIGAAGTVGAAAGYNLALRDVCDELVFVDIPKMEDKTVGQAADTNHGIAYDSNTVVTQGGYEDTAGSDVVVITAGIPRQPGQTRIDLAGDNAPIMDDIGSSLAEYNDDFVSITTSNPVDLLNRHLYETGDRDRHKVIGFGGRLDSARFRYVLSQRFDVPVKNVDATILGEHGDAQVPVFSKVRVDGNDPAFSADEKEEILGDLQESAMDVIERKGATQWGPATGVAHMVEAVLHDTGEVLPGSLVLDGEFGYEDTAFGVPVKLGSNGIEEVVEWDLDDYEADLMDDAAEKLRDQYDEIA |  |  |  |  |  | 4 | 4 | 4 and 2

Source: PMC8382911 (Molecular Biology and Evolution, 2021)
